{"source": "paper PMC10458858", "about": "“Phytochemical Investigation of Lepionurus sylvestris Blume and Their Anti-Diabetes Effects via Anti-Alpha Glucosidase and Insulin Secretagogue Activities Plus Molecular Docking” (Pharmaceuticals, 2023)", "key": {"[1]": {"target": "alpha glucosidase enzyme (Saccharomyces cerevisiae, UniProt P53341)", "sequence (P53341 whole entry)": "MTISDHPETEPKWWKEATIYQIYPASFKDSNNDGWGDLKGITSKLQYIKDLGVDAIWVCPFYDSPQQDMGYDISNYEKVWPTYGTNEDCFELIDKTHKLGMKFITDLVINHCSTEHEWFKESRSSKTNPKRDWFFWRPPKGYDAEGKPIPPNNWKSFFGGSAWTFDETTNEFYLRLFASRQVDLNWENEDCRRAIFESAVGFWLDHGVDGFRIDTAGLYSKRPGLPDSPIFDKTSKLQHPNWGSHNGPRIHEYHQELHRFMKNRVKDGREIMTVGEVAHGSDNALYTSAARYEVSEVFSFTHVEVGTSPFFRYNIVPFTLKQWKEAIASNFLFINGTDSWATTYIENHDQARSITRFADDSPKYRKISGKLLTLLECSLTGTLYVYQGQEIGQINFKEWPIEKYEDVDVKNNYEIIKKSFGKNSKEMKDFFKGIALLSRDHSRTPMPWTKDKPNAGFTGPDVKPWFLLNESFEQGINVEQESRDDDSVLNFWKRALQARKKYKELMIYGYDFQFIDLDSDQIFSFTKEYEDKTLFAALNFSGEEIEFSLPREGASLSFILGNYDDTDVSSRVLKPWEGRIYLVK", "assay": "Anti-alpha glucosidase activity and mechanism of action (Michaelis–Menten, Lineweaver–Burk plots)", "type": "biochemical", "conditions": "for inhibition at 400 µg/mL: read-out: Alpha Glucosidase Inhibition at 400 μg/mL", "description": "The anti-alpha glucosidase activity was determined by following Phoopha et al.’s method. […] The reaction was prepared using a phosphate buffer (pH 7.0), sample (was dissolved in DMSO), […] as substrate, and alpha glucosidase enzyme solution. The test was evaluated by measuring the velocity of the reaction per minute."}, "[2]": {"test_system": "insulin-secreting rat insulinoma (INS-1E) cells", "assay": "Insulin secretagogue activity (ELISA)", "type": "cell-based", "conditions": "100 μg/mL, 24 h", "description": "The experiment was slightly modified from previous reports. In brief, the insulin secretion was determined by testing insulin-secreting rat insulinoma (INS-1E) cells, supported by Prof. Dr. Michael Wink, Institute of Pharmacy and Molecular Biotechnology (IPMB), University of Heidelberg, Germany. The cells were cultured in RPMI-1640 liquid medium and supplementary nutrients for cell culture under the condition of a 37 °C humidified incubator containing 5% CO2. The cells were seeded into 24-well plates at 2 × 10^5 cells. Later, the cells were treated with glucose-free culture media to stop energy consumption in the cell metabolism. Afterward, the minimum concentration of glucose in RPMI-1640 was added to the samples for 24 h. Finally, the insulin secretion was measured for insulin releasing by ELISA technique."}, "[3]": {"test_system": "Hela (human cervix adenocarcinoma)", "assay": "in vitro", "type": "cell-based", "method": "(§1) The toxicity in human cancer cells was tested on a human breast carcinoma cell line (MCF-7), human cervix adenocarcinoma cell line (HeLa), and human lung carcinoma cell line (A549), which were compared to a human gingival fibroblast cell line (HGF) as the normal cells. These cells were cultured in DMEM liquid medium, supporting supplementary nutrients for cell culture. […] A sulforhodamine B assay was used to evaluate the cytotoxic effects of the samples, following a previous report [19]. In brief, the cancer cells were seeded into 96-well plates at 5 × 10^3 cells and incubated for 24 h. Later, we added the test samples at the final concentration of 25 μg/mL and left the experiment in the incubator for 72 h. After that, the cancer cells were fixed with cold 10% trichloro acetic acid for an hour and then we washed the acid with water. The dried plate was dyed with 0.4% SRB in 1% acetic acid for 30 min, and we washed the color with 1% acetic acid 4 times. The SRB color was dissolved in the cancer cells by adding 10 mM tris-base and measuring with a microplate reader at 492 nm."}, "[4]": {"test_system": "A549 (human lung adenocarcinoma)", "assay": "in vitro", "type": "cell-based", "method": "as §1"}, "[5]": {"test_system": "MCF-7 (human breast adenocarcinoma)", "assay": "in vitro", "type": "cell-based", "method": "as §1"}, "[6]": {"test_system": "HGF (human gingival fibroblast)", "method": "as §1"}, "[7]": {"assay": "in vitro", "type": "cell-based, human", "conditions": "human; 25 µg/mL, 72 h, SRB; read-out: Cytotoxic Effect at 25 µg/mL (% Inhibition) ± SD, HeLa", "method": "as §1"}, "[8]": {"assay": "in vitro", "type": "cell-based, human", "conditions": "human; 25 µg/mL, 72 h, SRB; read-out: Cytotoxic Effect at 25 µg/mL (% Inhibition) ± SD, A549", "method": "as §1"}, "[9]": {"assay": "in vitro", "type": "cell-based, human", "conditions": "human; 25 µg/mL, 72 h, SRB; read-out: Cytotoxic Effect at 25 µg/mL (% Inhibition) ± SD, MCF-7", "method": "as §1"}, "[10]": {"assay": "in vitro", "conditions": "human", "method": "as §1"}, "[11]": {"conditions": "400 μg/mL, isolated compounds panel"}, "[12]": {"conditions": "control 2.5 mM glucose in RPMI-1640"}}, "note": "“And” between values parts separate entries of the source, which are not always exact repeats. Equal entries are not always repeated. Where two headings read alike, the source gives them in different places."}
{"compound": "C[C@H]1O[C@H](O[C@H]2[C@H](O)[C@@H](O)[C@@H](O[C@H]3[C@H](O)[C@@H](O)C(O)O[C@@H]3CO)O[C@@H]2CO)[C@H](O)[C@@H](O)[C@@H]1N[C@H]1C=C(CO)[C@@H](O)[C@H](O)[C@H]1O", "note": "(stereo partly drawn) [Acarbose, reference compound]", "values": [{"measurement": "Alpha Glucosidase Inhibition at 400 μg/mL", "setting": "[1]; [11]", "value": "62.14 ± 0.37"}, {"measurement": "Alpha Glucosidase Inhibition at 2 mg/mL", "setting": "[1]; 2 mg/mL, extracts panel", "value": "88.18 ± 0.53", "unit": "%"}, {"measurement": "mechanism of enzyme inhibition", "setting": "[1]; Michaelis–Menten and Lineweaver–Burk kinetic plots", "value": "competitive"}]}
{"compound": "CC(C)[C@@H](C)/C=C/[C@@H](C)[C@H]1CC[C@H]2C3=CC=C4C[C@@H](O)CC[C@]4(C)[C@H]3CC[C@]12C", "note": "[Ergosterol]", "values": [{"measurement": "total insulin secretion (insulin concentration)", "setting": "[2]; [12]", "value": 102.4525, "unit": "µg/L"}, {"measurement": "total insulin secretion (insulin concentration)", "setting": "[2]; control 2.5 mM glucose in RPMI-1640, listed as ergosterol", "value": 102.45, "unit": "µg/L"}, {"measurement": "inhibition at 400 µg/mL", "setting": "[1]", "value": "18.6 ± 1.42", "unit": "%"}]}
{"compound": "Cc1c(O)c(C(=O)CCc2ccccc2)c2oc(=O)cc(-c3ccccc3)c2c1O", "note": "[Interruptin A]", "values": [{"measurement": "total insulin secretion (insulin concentration)", "setting": "[2]; [12]", "value": "102.52 µg/L and 102.5228 µg/L"}, {"measurement": "inhibition at 400 µg/mL", "setting": "[1]; [11]", "value": "30.3 ± 1.17", "unit": "%"}]}
{"compound": "Hexane", "values": [{"measurement": "Cytotoxic Effect at 25 µg/mL (% Inhibition) ± SD, HeLa", "setting": "[3]", "value": "83.89 ± 4.31", "unit": "%"}, {"measurement": "Cytotoxic Effect at 25 µg/mL (% Inhibition) ± SD, A549", "setting": "[4]", "value": "15.40 ± 2.75", "unit": "%"}, {"measurement": "Cytotoxic Effect at 25 µg/mL (% Inhibition) ± SD, MCF-7", "setting": "[5]", "value": "53.54 ± 1.81", "unit": "%"}, {"measurement": "Cytotoxic Effect at 25 µg/mL (% Inhibition) ± SD, HGF", "setting": "[6]", "value": "48.23 ± 2.96", "unit": "%"}, {"measurement": "cytotoxicity category on HGF cells", "setting": "[6]", "value": "moderate (key: non-cytotoxic: cell viability above 80%; weak: 80–60%; moderate: 60–40%; strong: below 40%)"}]}
{"compound": "CC[C@@]1(O)C(=O)OCc2c1cc1n(c2=O)Cc2cc3ccccc3nc2-1", "note": "[Camptothecin, reference compound]", "values": [{"measurement": "inhibition at 72 h, 25 µg/mL", "setting": "[7]", "value": "85.2 ± 1.23", "unit": "%"}, {"measurement": "inhibition at 72 h, 25 µg/mL", "setting": "[8]", "value": "87.7 ± 1.78", "unit": "%"}, {"measurement": "inhibition at 72 h, 25 µg/mL", "setting": "[9]", "value": "92.95 ± 0.33", "unit": "%"}, {"measurement": "inhibition at 72 h, 25 µg/mL", "setting": "[10]", "value": "7.35 ± 1.34", "unit": "%"}]}
{"compound": "COc1ccc(Cl)cc1C(=O)NCCc1ccc(S(=O)(=O)NC(=O)NC2CCCCC2)cc1", "note": "[Glibenclamide, reference compound]", "values": [{"measurement": "total insulin secretion (insulin concentration)", "setting": "[2]; [12]", "value": "104.57 µg/L and 104.5722 µg/L"}]}
{"compound": "Cc1c(O)c(C(=O)C(O)Cc2ccccc2)c2oc(=O)cc(-c3ccccc3)c2c1O", "note": "(stereo not drawn) [Interruptin C]", "values": [{"measurement": "total insulin secretion (insulin concentration)", "setting": "[2]; [12]", "value": 102.0534, "unit": "µg/L"}, {"measurement": "total insulin secretion (insulin concentration)", "setting": "[2]; control 2.5 mM glucose in RPMI-1640, listed as interruptin C", "value": 102.05, "unit": "µg/L"}, {"measurement": "inhibition at 400 µg/mL", "setting": "[1]; [11]", "value": "58.2 ± 0.83", "unit": "%"}]}
{"compound": "OCC(O)COCC(O)CO", "note": "(stereo not drawn) [Diglycerol]", "values": [{"measurement": "total insulin secretion (insulin concentration)", "setting": "[2]; [12]", "value": 102.2139, "unit": "µg/L"}, {"measurement": "total insulin secretion (insulin concentration)", "setting": "[2]; control 2.5 mM glucose in RPMI-1640, listed as diglycerol", "value": 102.21, "unit": "µg/L"}, {"measurement": "inhibition at 400 µg/mL", "setting": "[1]; [11]", "value": "6.23 ± 1.84", "unit": "%"}]}
{"compound": "C=C1CC23COC(=O)C2=CCC[C@@H]3[C@@H]2C[C@H](c3ccoc3)OC(=O)[C@H]12", "note": "(stereo partly drawn) [The new diterpene (Lepionurodiolide), 15-16-epoxy-neo-cleoda-3,7(20),13(16),14-tetraene-12,17:18,19-diolide]", "values": [{"measurement": "total insulin secretion (insulin concentration)", "setting": "[2]; control 2.5 mM glucose in RPMI-1640, listed as The new diterpene", "value": 52.0566, "unit": "µg/L"}, {"measurement": "total insulin secretion (insulin concentration)", "setting": "[2]; control 2.5 mM glucose in RPMI-1640, listed as the new diterpene compound", "value": 52.06, "unit": "µg/L"}, {"measurement": "inhibition at 400 µg/mL", "setting": "[1]; [11]", "value": "58.48 ± 0.48", "unit": "%"}]}
